Data published in patent US7605175B2, “Inhibitors of cyclin-dependent kinases, compositions and uses related thereto” (GPC Biotech AG, priority 2001, dated 2009).

What was measured:
Cdk2/cyclin E = molecular target: T1, Cdk2/cyclin E (Homo sapiens, UniProt P24941); experiment: Biochemical kinase assay Cdk2/cyclin E; conditions: Table 6
T1 construct: made in house; host or cells: Sf9 insect cells
Source text: (§1) Enzymes: Cdc2/cyclin B was obtained from commercial sources. Cdk2/his-cyclin Eshort was expressed in Sf9 cells. Cdk2/cyclin A, cdk4/cyclin D1, and cdk6/cyclin D2 were expressed in Sf9 cells. Protein kinase A (catalytic subunit, from bovine heart) and protein kinase C (mixed isozymes from rat brain) were obtained from commercial sources.
(§2) Substrates: Histone H1 was from commercial sources. GST-Rb is glutathione-S-trans-ferase fused to the N-terminal of residues 379-928 of the Rb protein.
(§3) Cdk2/cyclin E, Cdk2/cyclin A, Cdk4/cyclin D1, and Cdk6/cyclin D2 activity was determined using a glutathione-sepharose capture assay. The enzymes were expressed in Sf9 insect cells as heterodimers, and the substrate (GST-Rb) was glutathione-S-transferase fused to residues 379 to 928 of Rb retinoblastoma protein, expressed in E. coli. The assay solution contained 50 mM Tris.HCl, 10 mM MgCl2, 1 mM dithiothreitol, 50 μM adenosine triphosphate, 2 μCi [γ-^33P]adenosine triphosphate, 10% dimethylsulfoxide (from compounds), pH 7.5, 40 μg GST-Rb, and enzyme in a 100 μL volume. Compounds were added at various concentrations between 1 nM and 10 μM. The reaction was allowed to proceed for 15 min at 30° C. and was stopped by the addition of 70 μL of stop solution (237 mM disodium ethylene-diamine tetraacetate, 105 mM adenosine triphosphate, pH 8.0). The GST-Rb was captured by binding to glutathione-sepharose bead (Amersham) for 110 min, and the suspension was filtered through a glass fiber filter. After washing the retained beads five time with phosphate-buffered saline containing 0.3% (w/v) Tween-20, the amount of ^33P incorporated was determined by scintillation counting after adding 100 μL scintillant. Relative activity was determined by dividing the amount of radioactivity incorporated in the presence of compound by the amount of radioactivity incorporated in a control experiment containing DMSO alone but no compound. The background radioactivity, determined in an experiment containing 50 mM disodium ethylenediamine tetraacetate in place of compound, was subtracted from all results before calculations.

HCT-116 cells [1] = experiment: Calcein AM viability assay, HCT-116; format: cell-based; conditions: Homo sapiens
Description: The potency of Cdk inhibitors, as measured by loss of cellular viability, was determined with the Calcein AM assay (Molecular Probes). Calcein AM is a substrate of intracellular esterases, which is cleaved only in viable cells to generate a fluorescent product that can be quantified with a fluorescent plate reader. The fluorescent signal is proportional to the number of viable cells, and thus loss of signal in response to the exposure of cells to Cdk inhibitors correlates with a loss of viability. This assay can distinguish cell cycle arrest, in which cells may still by viable, from loss of viability and is thus well suited for the evaluation of Cdk inhibitors. A compound that is a potent cytotoxic, may cause significant loss of cell viability in such assay.
Cellular IC50's were determined in the human colorectal carcinoma cell line, HCT-116, and the normal human fibroblast, IMR90. Protein adjusted IC50's were also determined in HCT-116.
HCT-116 or IMR90 cells were recovered from sub-confluent plates by trypsinization and 1,000 or 4,000 cells, respectively, were plated in 24-well dishes and incubated overnight at 37° C., 5% CO2. HCT-116 cells were cultured in RPMI-1640, 10% FCS, and IMR90 cells were cultured in Minimum Essential Medium-alpha, 10% FCS. After overnight incubation to allow adherence, the media was aspirated from each well and replaced with media containing a test compound at a concentration from 0 to 250 nM, spanning a total of 7 doses. The plates were returned to the incubator and cultured for an additional 72 hours (3 days). […] After 72-hours incubation with the test compound, the cells were washed twice with 1×PBS, taking special care to remove all residual buffer.
A 5 μM Calcein AM solution was prepared by dissolving a […] aliquot of Calcein (Molecular Probes catalog # C3100) in 50 μl DMSO. After the Calcein had completely dissolved (10 minutes at room temperature), it was diluted into 10 ml PBS. Calcein/PBS (0.5 ml) was added to each well. The plates were incubated for 75 minutes at 37° C. (protected from light) and the fluorescent signal was read on a fluorescent plate reader (excitation 485/20 and emission 530/25).

Cdk4/cyclin D1 = molecular target: T2, Cdk4/cyclin D1 (Homo sapiens, UniProt P11802); experiment: Biochemical kinase assay Cdk4/cyclin D1; conditions: Table 6
T2 construct: made in house; host or cells: Sf9 insect cells
Source text: as §1, §2, §3

Cdc2/cyclin B = molecular target: T3, Cdc2/cyclin B (Homo sapiens, UniProt P06493); experiment: Biochemical kinase assay Cdc2/cyclin B; conditions: Table 6
T3 construct: purchased
Source text: as §1, §2
Assays: Cdc2/cyclinB activity was determined by measuring incorporation of radio-activity from adenosine [γ-^32P]triphosphate into Histone H1 using a TCA precipitation assay. Cdc2/cyclin B kinase and Histone H1 were obtained from commercial sources. The final assay solution contained 50 mM Tris.HCl, 10 mM MgCl2, 1 mM dithiothreitol, 50 μM adenosine triphosphate, 2 μCi ^32P, 10% dimethylsulfoxide (from compounds), pH 7.5, 20 μg Histone H1, 6 U enzyme in a 50 μL volume. Compounds were added at various concentrations between 1 nM and 10 μM. The reaction was started with the addition of enzyme, allowed to proceed for 20 min at 30° C., and stopped by the addition of 20 μL of stop solution (237 mM disodium ethylenediamine tetraacetate, 105 mM adenosine triphosphate, pH 8.0). The protein was precipitated by the addition of 35 μL 70% (w/v) trichloroacetic acid, and the precipitate was captured on a 96-well glass fiber filter plate (Millipore, Inc.), which had been wet with 25% (w/v) trichloroacetic acid. The filter was washed ten times with 25% (w/v) trichloroacetic acid, and the amount of incorporated ^32P was determined by scintillation counting after adding 100 μL scintillant (Microscint 20, Packard Instruments). Relative activity was determined by dividing the amount of radioactivity incorporated in the presence of compound by the amount of radioactivity incorporated in a control experiment containing DMSO alone but no compound. The background radioactivity, determined in an experiment containing 50 mM EDTA in place of compound, was subtracted from all results before calculations.

HCT-116 cells [2] = experiment: BrdU incorporation assay; format: cell-based; conditions: Homo sapiens, read-out: Brd U, concentration that inhibits BrdU incorporation by 50%
Description: This method measured the percentage of cells that incorporated the nucleotide analog, BrdU, into newly synthesized DNA as cells progressed through the S phase of the cell cycle. The inhibition of BrdU incorporation was used as a measure of a Cdk inhibitor's effect on S phase progression and DNA replication.
3 sets of HCT-116 cells (100,000 cells/set) were plated in T25 flasks and incubated with a test compound as above. Analysis was done at 24, 48, and 72 hours. BrdU was added to each T-25 flask from a stock of 10 mg/ml to a final concentration of 10 μM and the cells were incubated for an additional 16-18 hours at 37° C. The cells were then prepared for flow cytometric analysis according to manufacturer's protocol (BrdU Flow kit, BD-Pharmingen catalogue #2354KK) as follows:
Cells were harvested (adherent and floating) from the T25 flasks directly into Falcon 12×75 flow cytometric tubes as above followed by fixation and permeabilization with the addition of 100 μl of Cytofix/Cytoperm buffer (30 minutes, room temperature). The cells were then washed with 1 ml of Perm Wash buffer and the cell pellets were resuspended in 100 μl Cytoperm Plus buffer and incubated on ice for 10 minutes. The cells were then washed again with 1 ml of Perm Wash buffer and the fixation was repeated in 100 μl of Cytofix/Cyto Perm buffer for 10 minutes at room temperature. The cells were then washed with 1 ml of Perm Wash buffer. The cells were next treated for one hour at 37° C. with 100 μl DNase to expose incorporated BrdU followed by another wash step with 1 ml of Perm Wash buffer. […] Cells were protected from light and incubated at room temperature for 20-30 minutes. Following the incubation, the cells were washed with 1 ml of Perm Wash buffer, resuspended in 300 μl of 2% FBS in PBS, and analyzed on the flow cytometer. Results are presented in Table 2 as the concentration of compound (μM) that inhibits of BrdU incorporation by 50%.

arrested IMR90 cells = experiment: Arrested cell assay, arrested IMR90 normal cells; format: cell-based; conditions: Homo sapiens, IMR-90; serum-starved arrested cells, 72 hours; read-out: Arrested cell assay IMR90 IC50
Description: Cyclin-dependent kinase (Cdk) activity is required to promote the progression of cells through distinct phases of the cell division cycle. The proliferation of normal, non-transformed, cells in culture requires the presence of growth factors, the removal of which, through serum deprivation, leads to a loss of Cdk activity and consequent exit from the cell cycle as cells enter the quiescent phase, G0.
IMR90 cells were plated in triplicate for each compound concentration to be tested in MEM-A media containing 10% fetal calf serum at a density of either 2,000 or 20,000 cells per well in 24-well dishes and incubated overnight at 37° C., 5% CO2. The media was removed from the 20,000 cell-per-well dish, cells were washed once with serum-free media, and serum-free media was placed on cells. The plates containing cells both in the presence and absence of serum were incubated for 3 additional days.
The cells are incubated in the presence of the compounds for 72 hours (3 days) at 37° C. […] Cycling and arrested HCT-116 cells as well as cycling IMR90 cells were exposed to a panel of 6 doses ranging from 5 to 250 nM. For arrested normal cells, the range of doses was increased to 50 nM to 25 μM, to compensate for the expected decrease in activity.
The effect of 72 hours of compound exposure on cellular viability was assessed in the Calcein AM assay. Calcein AM is a fluorescent substrate of intracellular esterases that are only active in viable cells. Cleavage of the substrate thus provides a measure of viability, which is proportional to cell number.
A Calcein AM stock solution was prepared by dissolving a 50 μg aliquot (Molecular Probes catalogue # C3100) in 50 μl DMSO. The tube was incubated at room temperature for approximately 10 minutes to ensure that the Calcein had dissolved completely. The calcein was diluted into 10 ml PBS to prepare the final solution, which was protected from light.
The media was aspirated off the cells, which were then washed twice with 1 ml PBS to remove the PBS completely from cells by aspiration. 0.5 ml of the Calcein/PBS solution was transferred by pipette into each well. The plates were incubated at 37° C. for 75 minutes (protected from light) and read on a fluorescent plate reader (excitation 485/20 and emission 530/25).

[3] = HCT-116, non-protein adjusted, Table 6, read-out: HCT-116 viability IC50

T3 sequence (P06493 whole entry, species assumed): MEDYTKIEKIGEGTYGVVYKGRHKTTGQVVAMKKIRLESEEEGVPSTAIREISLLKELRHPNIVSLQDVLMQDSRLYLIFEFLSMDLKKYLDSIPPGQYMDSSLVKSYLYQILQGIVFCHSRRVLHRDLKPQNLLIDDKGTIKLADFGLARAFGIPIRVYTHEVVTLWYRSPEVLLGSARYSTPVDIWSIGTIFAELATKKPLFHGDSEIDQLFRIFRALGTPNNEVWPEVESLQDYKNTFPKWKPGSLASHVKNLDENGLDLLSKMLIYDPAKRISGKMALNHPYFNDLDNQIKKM
T3 sequence (P14635 whole entry partner, species assumed): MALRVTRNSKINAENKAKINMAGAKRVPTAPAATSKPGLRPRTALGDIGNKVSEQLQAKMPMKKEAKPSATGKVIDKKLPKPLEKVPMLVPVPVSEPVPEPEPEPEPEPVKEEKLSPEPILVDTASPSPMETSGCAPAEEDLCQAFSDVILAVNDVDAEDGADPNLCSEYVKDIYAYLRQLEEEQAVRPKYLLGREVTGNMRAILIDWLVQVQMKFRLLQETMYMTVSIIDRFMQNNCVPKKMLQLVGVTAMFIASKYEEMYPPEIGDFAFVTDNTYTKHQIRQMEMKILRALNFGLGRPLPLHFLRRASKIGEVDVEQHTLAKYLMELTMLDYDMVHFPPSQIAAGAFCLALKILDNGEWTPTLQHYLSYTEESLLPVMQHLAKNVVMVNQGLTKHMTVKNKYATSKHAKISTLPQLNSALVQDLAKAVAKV
T2 sequence (P11802 whole entry, species assumed): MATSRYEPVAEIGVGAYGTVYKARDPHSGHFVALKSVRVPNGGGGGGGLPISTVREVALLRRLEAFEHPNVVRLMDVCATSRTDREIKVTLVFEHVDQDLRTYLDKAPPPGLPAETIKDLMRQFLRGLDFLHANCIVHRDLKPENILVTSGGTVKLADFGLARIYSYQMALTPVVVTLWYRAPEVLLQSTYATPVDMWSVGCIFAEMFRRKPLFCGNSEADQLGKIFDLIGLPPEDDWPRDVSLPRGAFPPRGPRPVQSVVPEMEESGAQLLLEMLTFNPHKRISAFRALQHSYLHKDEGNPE
T2 sequence (P24385 whole entry partner, species assumed): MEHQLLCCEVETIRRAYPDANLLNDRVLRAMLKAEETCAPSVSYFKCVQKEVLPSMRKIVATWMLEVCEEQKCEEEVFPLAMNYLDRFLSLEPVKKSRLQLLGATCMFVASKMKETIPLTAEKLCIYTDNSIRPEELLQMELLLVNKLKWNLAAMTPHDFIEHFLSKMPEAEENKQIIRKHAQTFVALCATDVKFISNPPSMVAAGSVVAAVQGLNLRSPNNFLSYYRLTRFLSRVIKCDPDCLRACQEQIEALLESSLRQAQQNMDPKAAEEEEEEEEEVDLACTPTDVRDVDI

SMILES | IC50 (Cdk2/cyclin E) [nM] | IC50 (HCT-116 cells [1]; [3]) [nM] | IC50 (Cdk4/cyclin D1) [nM] | IC50 (Cdc2/cyclin B) [nM] | IC50 (HCT-116 cells [2]; HCT-116, 72 h) [nM] | IC50 (HCT-116 cells [1]; HCT-116, plus 1 mg/ml alpha acidic glycoprotein and 45 mg/ml human serum albumin, read-out: HCT-116 IC50 Protein adjusted) [nM] | IC50 (arrested IMR90 cells) [nM] | IC50 (HCT-116 cells [2]; HCT-116, 24 h) [nM] | IC50 (HCT-116 cells [1]; HCT-116, 72 h, Calcein AM, 72 hours, read-out: HCT-116 IC50 Viability) [nM]
CC(C)c1nn(-c2c(Cl)cc(Cl)cc2Cl)c2nc(Cc3ccc(CN4CCCC4)n3C)[nH]c(=O)c12 [Compound A43] | < 100 | < 100 | < 1000 | < 1000 | – | – | – | – | –
CC(C)c1nn(-c2c(Cl)cccc2Cl)c2nc(Cc3ccc(C(=O)NOCCN4CCOCC4)cc3)[nH]c(=O)c12 [Compound A52] | < 100 | < 100 | < 1000 | < 1000 | – | – | – | – | –
CCN1CCN(S(=O)(=O)c2cc(Cl)c(-n3nc(C(C)C)c4c(=O)[nH]c(Cc5ccc(OCCN6CCOCC6)cc5)nc43)c(Cl)c2)CC1 [Compound A53] | < 1000 | < 10 | < 10000 | < 1000 | – | – | – | – | –
CC(C)c1nn(-c2c(Cl)cc(S(N)(=O)=O)cc2Cl)c2nc(Cc3ccc(OCCN4CCOCC4)cc3)[nH]c(=O)c12 [Compound A54] | < 10 | < 100 | < 1000 | < 10 | – | – | – | – | –
CCN(CCO)S(=O)(=O)c1cc(Cl)c(-n2nc(C(C)C)c3c(=O)[nH]c(Cc4ccc(OCCN5CCOCC5)cc4)nc32)c(Cl)c1 [Compound A55] | < 100 | < 100 | < 10000 | < 100 | – | – | – | – | –
CC(C)c1nn(-c2c(Cl)cccc2Cl)c2nc(Cc3ccc(OCCOP(=O)(O)O)cc3)[nH]c(=O)c12 [Compound A62] | < 100 | < 100 | < 10000 | < 100 | – | – | – | – | –
CC(C)c1nn(-c2c(Cl)cccc2Cl)c2nc(Cc3ccc(OCC(C)(C)O)cc3)[nH]c(=O)c12 [Compound A63] | < 100 | < 100 | < 1000 | < 100 | – | – | – | – | –
COCCOc1ccc(Cc2nc3c(c(C(C)C)nn3-c3c(Cl)cccc3Cl)c(=O)[nH]2)cc1 [Compound A66] | < 100 | < 100 | < 10000 | < 100 | – | – | – | – | –
CC(C)N1CCN(C(=O)COc2ccc(-c3[nH]nc4c3C(=O)c3c(NC(=O)NN5CCOCC5)cccc3-4)cc2)CC1 [Compound A76] | < 100 | < 100 | < 100 | < 100 | – | – | – | – | –
CN1CCN(NC(=O)Nc2cccc3c2C(=O)c2c-3n[nH]c2-c2ccc(OCCN3CCCC3)cc2)CC1 [F] | – | – | – | – | < 1000 | < 100 | > 1000 | – | –
Cc1cc(OCCN2CCCC2)ccc1-c1[nH]nc2c1C(=O)c1c(NC(=O)NN3CCN(C)CC3)cccc1-2 [L] | – | – | – | – | – | – | – | < 100 | < 100
